Usually EC50 stands for the concentration at which the effect is half-maximal.

Here are results for 28 compounds from ChEMBL document CHEMBL4808187, “Antiarrhythmic Hit to Lead Refinement in a Dish Using Patient-Derived iPSC Cardiomyocytes” (J Med Chem, 2021).

Data set [1] can be described thus: Antiarrhythmic activity in patient-derived hiPSC-CMs carrying LQT3 mutation assessed as shortening of action potential duration. It is filed as functional, Homo sapiens. The conditions noted are these: ipsc-cm.
Data set [2] is described as follows: (§1) Antiarrhythmic activity in patient-derived hiPSC-CMs carrying LQT3 mutation assessed as cessation dose for cell beating. The format is functional, Homo sapiens, iPSC-CM.
A short description of data set [3]: Antiarrhythmic activity in patient-derived hiPSC-CMs carrying LQT3 mutation assessed as shortening dose of action potential. It is filed as functional, Homo sapiens, iPSC-CM.
The nature of data set [4]: Antiarrhythmic activity in hiPSC-CMs assessed as fold prolongation of action potential relative to control. Conditions: human, ipsc-cm.
Data set [5] can be described thus: Antiarrhythmic activity in hiPSC-CMs assessed as cessation dose of cell beating. Conditions: human, ipsc-cm.
A short description of data set [6]: Antiarrhythmic activity in hiPSC-CMs assessed as dose for induction of early after depolarizations. The conditions noted are these: human, ipsc-cm.
A short description of data set [7]: Antiarrhythmic activity in patient-derived hiPSC-CMs carrying LQT3 mutation assessed as fold shortening of action potential duration relative to control. It is filed as functional, Homo sapiens, iPSC-CM.
The nature of data set [8]: Antiarrhythmic activity in hiPSC-CMs assessed as prolongation of action potential. On the set-up: species or system Homo sapiens, iPSC-CM.
Another data set deals with iPSC-CM. Described as §1. It is filed as functional. Conditions: Homo sapiens.
[9] abbreviates: Homo sapiens, iPSC-CM, read-out: EC50.

Calls of active or inactive are those of the source. The rule behind the calls is not given here.

As for `Cc1cc(C)cc(OCC(NCCO)c2ccccc2)c1.Cl` (centres undefined), the EC50 result in data set [1] was “Not Active”. Further, the Activity in data set [2] is 22 µM; in data set [3] it was 22 µM; in data set [4], “Not Active”; in data set [5], 66 µM; in [6] it was “Not Active”. In addition, the “fold change (FC)” value in data set [7] was determined as 1.5.
Take `Cl.NC(COc1ccccc1OC(F)(F)F)c1ccccc1` (centres undefined): the EC50 in data set [1] (read-out: EC50) is 2.6 µM; in data set [8] (ipsc-cm) it was “Not Active”. For the same compound, the Activity in [2] is 66 µM; in [3], 22 µM; in data set [5], 66 µM; in [6], “Not Active”. For the same compound, in data set [7], the “fold change (FC)” value is listed as 1.513.
Take `CCCCNC(C)COc1c(C)cccc1C.Cl` (centres undefined): the results for the EC50 in [1] (read-out: EC50) and in [8] (setting [9]) were below 0.8 µM and 7.8 µM, respectively. Besides, the Activity in data set [2] was found to be 66 µM; in data set [3], 2.5 µM; in data set [5], 133 µM; in [6] it was 66 µM. Also, the “fold change (FC)” value in [7] turned out to be 1.18.
In the case of `CCCc1ccccc1OCC(N)c1ccccc1.Cl` (centres undefined), the 50% effective concentration (EC50) in data set [1] (read-out: EC50) was below 0.8 µM; in [8] (ipsc-cm) it was “Not Active”. For the same compound, the Activity was 22 µM in data set [2], 2.5 µM in data set [3], 22 µM in data set [5] and “Not Active” in data set [6]. Further, the “fold change (FC)” value in [7] was 1.321.
Turning to `Cc1cccc(C)c1OCC(N)c1ccc2ccccc2c1.Cl` (centres undefined), the results for the EC50 in data set [1] (read-out: EC50) and in data set [8] (ipsc-cm) were 4.73 µM and “Not Active”, respectively. In addition, the Activity was 133 µM in [2], 22 µM in data set [3], “Not Active” in data set [5] and “Not Active” in [6]. Also, the “fold change (FC)” value in data set [7] is recorded as 1.309.
Regarding `COCCNC(C)COc1c(C)cccc1C.Cl` (centres undefined), the figures for the EC50 in data set [1] (read-out: EC50) and in [8] (setting [9]) were 2.3 µM and 32 µM, respectively. Also, the result in the data set with iPSC-CM was inactive. In addition, the Activity was 7.4 µM in [3], “Not Active” in [5] and 66 µM in [6].
On to `Cc1ccc(OCC(N)c2ccccc2)cc1C.Cl` (centres undefined), for which the EC50 entry in data set [1] and in data set [8] (ipsc-cm) was “Not Active” throughout. Besides, the Activity in [2] is 66 µM; in data set [3], 22 µM; in data set [5], 66 µM; in data set [6], “Not Active”. Besides, the “fold change (FC)” value in [7] is reported as 1.37.
Take `CC(N)COc1cc(C(F)(F)F)cc(C(F)(F)F)c1.Cl` (centres undefined): the EC50 in data set [1] (read-out: EC50) was 0.9 µM; in [8] (ipsc-cm) it was “Not Active”. The Activity in data set [2] was 66 µM; in data set [3] it was 7.4 µM; in data set [5], 133 µM; in data set [6] it was “Not Active”. In addition, in [7], the “fold change (FC)” value is on record as 1.2.
As for `CC(=O)NC(COc1c(C)cccc1C)c1ccccc1` (centres undefined), the EC50 in data set [1] (read-out: EC50) amounted to 0.8 µM. The Activity in [2] is 66 µM; in data set [3], 22 µM; in [4], “Not Active”; in data set [5], “Not Active”; in data set [6] it was “Not Active”. Besides, the “fold change (FC)” value in data set [7] worked out at 1.62.
For `Cc1ccc(OCC(N)C2CC2)cc1C.Cl` (centres undefined), the EC50 result in data set [1] was “Not Active”. The Activity in data set [2] is 66 µM; in [3], 22 µM; in data set [4], “Not Active”; in data set [5] it was 66 µM; in [6] it was “Not Active”. Besides, the “fold change (FC)” value in [7] turned out to be 1.18.
With `CNC(COc1cccc(C)c1C)c1ccccc1.Cl` (centres undefined), the EC50 entry in data set [1] is “Not Active”. In addition, the Activity was 66 µM in data set [2]; 22 µM in [3]; “Not Active” in [4]; 133 µM in [5]; “Not Active” in data set [6]. In addition, the “fold change (FC)” value in [7] came to 1.29.
Consider `COc1ccccc1OCC(N)c1ccccc1.Cl` (centres undefined), for which the EC50 in data set [1] (read-out: EC50) is below 0.8 µM; in data set [8] (setting [9]), 32.2 µM. Also, the Activity was 133 µM in data set [2], 0.8 µM in data set [3], 22 µM in data set [5] and 7.4 µM in [6]. For the same compound, the “fold change (FC)” value in data set [7] is reported as 1.482.
On to `Cl.NC(COc1ccccc1OCC(F)(F)F)c1ccccc1` (centres undefined), for which the results for the EC50 in data set [1] (read-out: EC50) and in [8] (ipsc-cm) were 0.9 µM and “Not Active”, respectively. The Activity was 66 µM in [2], 22 µM in data set [3], 66 µM in data set [5] and “Not Active” in data set [6]. Moreover, the “fold change (FC)” value in data set [7] was 1.409.
As to `Cl.NC(COc1cccc(C(F)(F)F)c1)c1ccccc1` (centres undefined), the EC50 in [1] (read-out: EC50) is 4.1 µM; in data set [8] (ipsc-cm) it was “Not Active”. Moreover, the Activity is 66 µM in [2], 22 µM in [3], 66 µM in data set [5] and “Not Active” in data set [6]. In addition, the “fold change (FC)” value in [7] worked out at 1.539.
Turning to `Cl.NC(COc1cccc2ccccc12)c1ccccc1` (centres undefined), the concentration for a half-maximal effect (EC50) was 0.82 µM in data set [1] (read-out: EC50) and “Not Active” in data set [8] (ipsc-cm). The Activity in data set [2] was 66 µM; in data set [3] it was 66 µM; in data set [5], “Not Active”; in data set [6], “Not Active”. In addition, the “fold change (FC)” value in [7] is given as 1.316.
In the case of `CCCNC(C)COc1c(C)cccc1C.Cl` (centres undefined), the EC50 result in data set [1] was “Not Active”; in [8] (setting [9]) it was 10.4 µM. Besides, the Activity in [2] was 200 µM; in [3] it was 2.5 µM; in [5], 200 µM; in data set [6], 66 µM. Moreover, the “fold change (FC)” value in data set [7] was determined as 1.199.
Regarding `CC(N)COc1cccc(C(F)(F)F)c1.Cl` (centres undefined), the EC50 was 31.3 µM in [1] (read-out: EC50) and “Not Active” in [8] (ipsc-cm). Moreover, the Activity was 200 µM in [2], 133 µM in data set [3], 200 µM in [5] and “Not Active” in data set [6]. Further, the “fold change (FC)” value in data set [7] turned out to be 1.661.
As for `Cl.NC(COc1ccc2ccccc2c1)c1ccccc1` (centres undefined), the half-maximal effective concentration (EC50) is 8.7 µM in [1] (read-out: EC50) and “Not Active” in [8] (ipsc-cm). For the same compound, the Activity was 133 µM in data set [2], 2.5 µM in [3], “Not Active” in data set [5] and “Not Active” in data set [6]. Moreover, the “fold change (FC)” value in [7] is given as 1.459.
For `Cc1cccc(C)c1OCC(N)C1CCCCC1.Cl` (centres undefined), the EC50 in [1] (read-out: EC50) was below 0.8 µM; in data set [8] (ipsc-cm), “Not Active”. Also, the Activity is 66 µM in data set [2], 0.8 µM in [3], 66 µM in data set [5] and “Not Active” in data set [6]. Moreover, the “fold change (FC)” value in data set [7] is on record as 1.136.
On to `CCCCNC(COc1cccc(C)c1C)c1ccccc1.Cl` (centres undefined), for which the EC50 in [1] (read-out: EC50) was 20.2 µM. For the same compound, the Activity in [2] was 200 µM; in data set [3], 133 µM; in data set [4], “Not Active”; in data set [5], 133 µM; in [6], “Not Active”. In addition, in [7], the “fold change (FC)” value stood at 1.423.
Consider `Cc1cccc(C)c1OCC(N)c1ccccc1.Cl` (centres undefined), for which the “fold change (FC)” value in data set [4] is 4.
Consider `CCc1ccccc1OCC(N)c1ccccc1.Cl` (centres undefined), for which the EC50 in [1] (read-out: EC50) was below 0.8 µM; in [8] (ipsc-cm), “Not Active”. Moreover, the Activity was 22 µM in [2], 7.4 µM in [3], 66 µM in [5] and “Not Active” in data set [6]. In addition, in data set [7], the “fold change (FC)” value is recorded as 1.979.
Consider `Cc1ccc(OCC(N)C2CC2)c(C)c1.Cl` (centres undefined), for which the EC50 in data set [1] (read-out: EC50) was 1.36 µM. Moreover, the Activity in [2] was 200 µM; in data set [3] it was 66 µM; in data set [5], 200 µM; in data set [6], 66 µM. For the same compound, the “fold change (FC)” value in data set [4] stood at 2.12; in data set [7] it was 1.119.
Consider `Cc1cccc(C)c1OCC(C)NCc1ccccc1.Cl` (centres undefined), for which the EC50 entry in data set [1] was “Not Active”; in [8] (setting [9]), 5.7 µM. Besides, the Activity in [2] is 133 µM; in [3], 22 µM; in data set [5], 200 µM; in [6], “Not Active”. For the same compound, the “fold change (FC)” value in [7] worked out at 1.264.
As to `COCCNC(COc1cc(C(F)(F)F)cc(C(F)(F)F)c1)c1ccccc1.Cl` (centres undefined), in [1] (read-out: EC50), the EC50 worked out at 6.59 µM. Moreover, the Activity in data set [2] is 66 µM; in data set [3] it was 66 µM; in [4], “Not Active”; in data set [5], “Not Active”; in data set [6] it was “Not Active”. In addition, in data set [7], the “fold change (FC)” value stood at 1.636.
Consider `CCCc1ccccc1OCC(C)N.Cl` (centres undefined), for which the EC50 in data set [1] (read-out: EC50) amounted to 0.9 µM; in data set [8] (setting [9]) it was 7.8 µM. Besides, the Activity in [2] was 133 µM; in data set [3] it was 7.4 µM; in data set [5], 200 µM; in data set [6], “Not Active”. Moreover, the “fold change (FC)” value in data set [7] is reported as 1.192.
`Cc1ccc(OCC(N)c2ccccc2)c(C)c1.Cl` (centres undefined): the concentration for a half-maximal effect (EC50) in data set [1] (read-out: EC50) was 0.5 µM; in data set [8] (ipsc-cm) it was “Not Active”. Further, the Activity in [2] was 66 µM; in data set [3], 7.4 µM; in [5], 66 µM; in data set [6], “Not Active”. Moreover, the “fold change (FC)” value in [7] is on record as 1.192.
Take `Cc1cccc(OCC(N)c2ccccc2)c1.Cl` (centres undefined): the EC50 in data set [1] (read-out: EC50) was below 0.8 µM; in data set [8] (ipsc-cm) it was “Not Active”. The Activity in data set [2] is 66 µM; in data set [3], 22 µM; in [5], 133 µM; in [6] it was “Not Active”. Further, the “fold change (FC)” value in data set [7] is listed as 1.41.
